Source: patent US11339122B2, “hTRPV1 chemical agents” (UNIVERSITY OF PITTSBURGH—OF THE COMMONWEALTH SYSTEM OF …, priority 2015, dated 2022)
Several values for one entry are separate records, joined by “and”; a condition that tells them apart may be missing. Identical values can stand only once.

Experiments:
hTRPV1 [1] = molecular target: T1, hTRPV1 (Homo sapiens (Human), UniProt Q8NER1); experiment: Ca2+ uptake assay, capsaicin antagonism (CHO-hTRPV1 cells); assay type: cell-based; conditions: for % inhibition at 30 μM (capsaicin antagonism) / inhibition at 30 µM: compound at 30 μM, capsaicin 30 nM; for Ki: capsaicin (30 nM) stimulated Ca2+ uptake
Protocol: (§1) Tet-On induced CHO-hTRPV1 cells were cultured in maintaining medium (F12 supplemented with 10% TET-free FBS [Atlanta Biologicals, GA], 25 mM HEPES, 10 μg/ml blasticidin and 250 μg/ml geneticin (all from Invitrogen Life Sciences; Grand Island, N.Y.). TRPV1 protein was induced with induction medium (F12 supplemented with 10% FBS, 25 mM HEPES, and 1 μg/ml tetracycline) as described below for ligand binding and Ca uptake measurements.
(§2) CHO-hTRPV1 cells were plated in 24-well plates, reaching 40 to 60% confluence in maintaining medium after 24 hours. The cells were washed once with Dulbecco's phosphate buffered saline (DPBS; Invitrogen, Grand Island, N.Y.) to remove antibiotics, and fresh medium with tetracycline (inducing medium) was added to induce TRPV1 expression. Experiments were done approximately 24 hours after induction. The cells were at least 90% confluent at the time of the assays.
(§3) For agonist Ca^2+ uptake assays, the inducing medium was aspirated and replaced by DMEM (supplemented with bovine serum albumin (0.25 mg/mL), […], and 100 μl of increasing concentrations of the non-radioactive ligand for a total volume of 400 μl/well. The cells were incubated for 5 min in a water bath at 37° C. For uptake measurements by a full agonist, a saturating concentration of capsaicin (3000 nM) was used as a positive control. Immediately after incubation, the assay medium was aspirated and the cells were washed twice with ice cold DPBS (no Ca^2+ & Mg^2+).The cells were then lysed in radioimmunoprecipitation assay buffer (50 mM Tris-Cl pH 7.5, 150 mM NaCl, 1% Triton X-100, 1% SDS, and 1% sodium deoxycholate; 400 μL/well) for at least 40 min on a shaker. Aliquots (300 μL) of the cell lysates were counted in a liquid scintillation counter. Background uptake was determined in the absence of either compound or capsaicin. For the antagonism assays, capsaicin (30 nM) was included along with increasing concentrations of the ligand being evaluated. The cells were incubated for 5 min in a water bath at 37° C. Immediately after incubation, the assay medium was aspirated and the cells were washed twice with ice-cold DPBS (no Ca^2+ & Mg^2+). The cells were then lysed in radioimmunoprecipitation assay buffer for at least 40 min on a shaker. Aliquots of the cell lysate were counted in a liquid scintillation counter. Triplicate points at each concentration of ligand were determined in each experiment. Compounds were initially screened at a concentration of 30 µM. Compounds showing greater than 10% agonism/antagonism were evaluated in triplicate experiments. As indicated, full dose response curves for compounds showing activity were performed at least three times. Data was analyzed using GraphPad Prism.

hTRPV1 [2] = molecular target: T1, hTRPV1; experiment: [3H]RTX competition binding assay (membranes of induced CHO-hTRPV1 cells); conditions: approximately 2 nM [3H]RTX, 37° C., 60 minutes; read-out: Ki for inhibition of [3H]RTX binding to hTRPV1
Protocol: as §1
Binding studies with [^3H]RTX were carried out as follows. The binding assay mixtures were prepared in 1.5 ml centrifuge tubes and consisted of a fixed concentration (approximately 2 nM) of [^3H]RTX (37 Ci/mmol specific activity, PerkinElmer Life Sciences), various concentrations of competing ligands, and […] of membranes from induced CHO-hTRPV1 expressing cells (approximately 1-3×10^6 cells) in Dulbecco's phosphate buffered saline (DPBS, with Ca^2+ & Mg^2+) for a total volume of 350 μl. The assay mix contained bovine serum albumin at a final concentration of 0.25 mg/ml (Cohn fraction V; Sigma-Aldrich, St. Louis, Mo.). In each set of experiments, nonspecific binding were determined in the presence of 200 nM non-radioactive RTX. The binding reaction was initiated by placing the assay mixture in a 37° C. shaking water bath for 60 minutes ([…]). The assay mixture was then chilled on ice for 2-3 min before adding 100 μl of α1-acid glycoprotein (2 mg/ml; Sigma-Aldrich) and mixed thoroughly. The tubes were kept on ice for an additional 10 min. The bound and free ligands were then separated by centrifugation (12,200 rpm for 15 minutes) in a Beckman Coulter centrifuge Allegra 21R. 200 μl of supernatant was collected for determination of free ligand. The remainder was removed by aspiration. The bottom portion of the tubes containing the membranes was cut off and bound radioactivity determined. Radioactivity was measured by scintillation counting. Data were analyzed using GraphPad Prism. Ki values for compounds were determined by competition for binding of [^3H]RTX to the hTRPV1 and represent the mean SEM of triplicate binding curves. […]

hTRPV1 [3] = molecular target: T1, hTRPV1; experiment: Agonist Ca2+ uptake assay (CHO-hTRPV1 cells); assay type: cell-based
Protocol: as §1, §2
as §3, with “The cells were incubated for 5 min in a water bath at 37° C. Immediately after incubation, the assay medium was aspirated and the cells were washed twice with ice-cold DPBS (no Ca^2+ & Mg^2+). The cells were then lysed in radioimmunoprecipitation assay buffer for at least 40 min on a shaker.” left out, “Triplicate points at each concentration of ligand were determined in each experiment. Compounds were initially screened at a concentration of 30 µM. Compounds showing greater than 10% agonism/antagonism were evaluated in triplicate experiments. As indicated, full dose response curves for compounds showing activity were performed at least three times.” left out

[4] = molecular target: cannabinoid receptor 2 (CB2) (Homo sapiens (Human), UniProt P34972); experiment: Binding at the cannabinoid receptor 2 (CB2)
Chain of cannabinoid receptor 2 (CB2) (P34972 whole entry, species assumed): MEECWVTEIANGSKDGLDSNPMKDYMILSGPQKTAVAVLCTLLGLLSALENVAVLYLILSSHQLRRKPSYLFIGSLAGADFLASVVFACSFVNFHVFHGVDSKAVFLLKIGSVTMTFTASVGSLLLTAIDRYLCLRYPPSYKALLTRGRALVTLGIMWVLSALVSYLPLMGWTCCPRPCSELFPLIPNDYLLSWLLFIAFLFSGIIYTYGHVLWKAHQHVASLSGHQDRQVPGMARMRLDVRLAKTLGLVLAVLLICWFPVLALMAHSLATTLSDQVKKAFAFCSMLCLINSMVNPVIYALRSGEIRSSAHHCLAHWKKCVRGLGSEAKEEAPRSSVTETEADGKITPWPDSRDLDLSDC

T1 sequence (Q8NER1 whole entry): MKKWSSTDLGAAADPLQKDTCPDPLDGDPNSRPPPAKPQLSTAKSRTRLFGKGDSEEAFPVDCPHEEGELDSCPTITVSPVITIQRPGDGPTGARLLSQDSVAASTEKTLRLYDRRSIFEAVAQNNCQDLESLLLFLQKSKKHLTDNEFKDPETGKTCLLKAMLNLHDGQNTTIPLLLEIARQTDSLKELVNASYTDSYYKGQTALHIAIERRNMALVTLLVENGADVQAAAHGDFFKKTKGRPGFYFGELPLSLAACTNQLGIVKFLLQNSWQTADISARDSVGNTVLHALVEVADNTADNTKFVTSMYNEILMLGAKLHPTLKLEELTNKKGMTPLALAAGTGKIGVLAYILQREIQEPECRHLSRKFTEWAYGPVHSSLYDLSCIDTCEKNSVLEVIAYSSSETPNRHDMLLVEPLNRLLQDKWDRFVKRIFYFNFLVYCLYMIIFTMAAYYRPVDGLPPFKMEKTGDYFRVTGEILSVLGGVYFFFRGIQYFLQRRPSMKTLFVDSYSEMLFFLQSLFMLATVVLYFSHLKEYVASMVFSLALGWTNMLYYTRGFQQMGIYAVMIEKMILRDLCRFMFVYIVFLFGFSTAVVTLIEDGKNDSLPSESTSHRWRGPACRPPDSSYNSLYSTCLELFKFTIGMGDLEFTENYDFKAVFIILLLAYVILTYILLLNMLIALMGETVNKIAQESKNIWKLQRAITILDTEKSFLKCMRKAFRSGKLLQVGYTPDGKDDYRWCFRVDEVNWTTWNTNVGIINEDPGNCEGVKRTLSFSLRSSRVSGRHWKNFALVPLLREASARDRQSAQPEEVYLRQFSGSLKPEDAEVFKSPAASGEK

O=C(Nc1cccc(C(F)(F)F)c1)Nc1ccc([N+](=O)[O-])cc1Cl [Compound 1] was tested, and the “% inhibition at 30 μM (capsaicin antagonism)” value (shortened to “% inhibition at 30 μM”) (hTRPV1 [1]) was 92.2 ± 2.7%, the inhibition at 30 µM (hTRPV1 [1]) was 98.2 ± 2.7% and the Ki (hTRPV1 [2]) was 1.11 ± 0.21 µM.

In the case of Cc1cc([N+](=O)[O-])ccc1NC(=O)Nc1cccc(F)c1 [Compound 2], the Ki (hTRPV1 [1]) is reported as 4.5 µM and 4.52 µM, the Ki (hTRPV1 [1]; listed as compound 2) is reported as 4.5 ± 0.88 µM and the inhibition at 30 µM (hTRPV1 [1]) is reported as 79.9 ± 4.9%. For the same molecule, the Ki (hTRPV1 [2]) was 5.2 ± 0.32 µM.

For NC(=O)c1ccccc1NC(=O)Nc1ccc(F)cc1 [Compound 3], the inhibition at 30 µM (hTRPV1 [1]) was 32 ± 8%.

CCOC(=O)c1ccc(NC(=O)Nc2cccc(Cl)c2)cc1 [Compound 4] gave a Ki (hTRPV1 [1]) of 11.7 ± 1.3 µM and an inhibition at 30 µM (hTRPV1 [1]) of 64.5%.

In the case of CCOC(=O)c1ccc(NC(=O)Nc2ccc(F)cc2)cc1 [Compound 5], the “functional character at hTRPV1” value (hTRPV1 [3]) is reported as “partial agonist”, the EC50 (hTRPV1 [3]; Ca2+ uptake, CHO-hTRPV1 cells, read-out: EC50 for capsaicin agonism) is reported as 2.84 ± 0.21 µM and the Emax (hTRPV1 [3]; relative to 3000 nM capsaicin, read-out: maximal stimulation, % of that by 3000 nM capsaicin (% agonism)) is reported as 55.7 ± 7.8%.

In the case of CCOC(=O)c1ccc(NC(=O)Nc2cc(Cl)ccc2C)cc1 [Compound 6], the inhibition at 30 µM (hTRPV1 [1]) is reported as 34 ± 7%.

COc1ccc(Cl)cc1NC(=O)Nc1ccc(CCO)cc1 [Compound 7] showed an inhibition at 30 µM (hTRPV1 [1]) of 33 ± 7%.

Work on COc1ccc(C)cc1NC(=O)Nc1ccccc1F [Compound 8] yielded an inhibition at 30 µM (hTRPV1 [1]) of 28 ± 6%.

Cc1cc(O)c(C(C)C)cc1NC(=O)Nc1ccc(Br)cc1 [Compound 9] gave an inhibition at 30 µM (hTRPV1 [1]) of 27 ± 14%.

With CSc1ccc(NC(=O)Nc2ccc(Cl)cc2[N+](=O)[O-])cc1 [Compound 11] the Ki (hTRPV1 [1]) was 3.7 ± 1.7 µM and the “% inhibition at 30 μM” value (hTRPV1 [1]) was 61 ± 18%.

Work on Cc1ccc(Cl)cc1NC(=O)Nc1cccc2c(O)cccc12 [Compound 13] yielded a Ki (hTRPV1 [1]) of 3.7 ± 1 µM and an inhibition at 30 µM (hTRPV1 [1]) of 72%.

With O=C(Nc1ccc(F)c([N+](=O)[O-])c1)Nc1cccc2c(O)cccc12 [Compound 14] the Ki [4] was 15.9 µM, the Ki (hTRPV1 [1]) was 0.47 ± 0.18 µM and the “% inhibition at 30 μM” value (hTRPV1 [1]) was 100 ± 0%. It also gave a Ki (hTRPV1 [2]) of 0.65 ± 0.26 µM.

Cc1c(Cl)cccc1NC(=O)Nc1cccc2c(O)cccc12 [Compound 15] was tested, and the Ki [4] was 1.39 µM, the Ki (hTRPV1 [1]) was 0.49 ± 0.14 µM and the inhibition at 30 µM (hTRPV1 [1]) was 99.6%.

Cc1c(Cl)cccc1NC(=O)Nc1cccc(O)c1 [Compound 16] gave a Ki [4] of 12.2 µM, a Ki (hTRPV1 [1]) of 0.56 ± 0.16 µM and an inhibition at 30 µM (hTRPV1 [1]) of 100%.

With O=C1C(=O)c2cc(Br)cc([N+](=O)[O-])c2-c2ccc(Br)cc21 [Compound 17] the Ki (hTRPV1 [1]) was 2.15 ± 0.72 µM and the “% inhibition at 30 μM” value (hTRPV1 [1]) was 66 ± 11%.

For O=C(Nc1cc(C(F)(F)F)ccc1Cl)c1ccccc1F [Compound 18], the Ki (hTRPV1 [1]) was 7 ± 2 µM and the inhibition at 30 µM (hTRPV1 [1]) was 51.8%.

For CCN(CC)c1ccc(CNS(=O)(=O)c2ccc(NC(C)=O)cc2)cc1 [XIE1-203Y, N-(4-(N-(4-(diethylamino)benzyl)sulfamoyl)phenyl)acetamide], the inhibition at 30 µM (hTRPV1 [1]) was 12.7 ± 1%.
